Assay results reported in ChEMBL document CHEMBL1201862, “PubChem BioAssay data set” (2004).
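Results reflect a 48-hour exposure of cells in 96-well plates to compound at five concentrations. Here, GI50 denotes the concentration required for 50% inhibition of growth.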 Activity calls are given as the source filed them. Cut-off read from the data, not from the text of the source: active = GI50 up to about 1.1 µM and inactive = higher.

Tests used:
Test in all cases: inhibition of tumour cell growth, NCI panel, 48 h
U-251 = tested on: U-251
RXF 393 = tested on: RXF 393
HOP-92 = tested on: HOP-92
KM12 = tested on: KM12
SK-MEL-5 = tested on: SK-MEL-5
HL-60 = tested on: HL-60
SW-620 = tested on: SW-620
A498 = tested on: A498
NCI-H23 = tested on: NCI-H23
OVCAR-8 = tested on: OVCAR-8
HT-29 = tested on: HT-29
M14 = tested on: M14
SK-MEL-28 = tested on: SK-MEL-28
SNB-75 = tested on: SNB-75
SK-MEL-2 = tested on: SK-MEL-2
NCI-H226 = tested on: NCI-H226
SR = tested on: SR
OVCAR-3 = tested on: OVCAR-3

Measured: GI50

CC1=N/C(=C\c2cccc([N+](=O)[O-])c2)C(=O)O1
inactive: U-251 > 100 µM | RXF 393 > 100 µM | HOP-92 > 100 µM | KM12 > 100 µM | SK-MEL-5 > 100 µM | HL-60 > 100 µM | SW-620 > 100 µM | A498 > 100 µM | NCI-H23 > 100 µM | OVCAR-8 > 100 µM | HT-29 > 100 µM | M14 > 100 µM | SK-MEL-28 > 100 µM | SNB-75 15.1 µM | SK-MEL-2 > 100 µM

Cc1c2n(c3ccccc13)CC1C2N(C)OC1(C)C (stereo unspecified)
inactive: U-251 > 10 µM | KM12 > 100 µM | SK-MEL-5 > 100 µM | NCI-H226 > 100 µM | SR > 100 µM | NCI-H23 > 100 µM | OVCAR-3 > 100 µM | OVCAR-8 > 100 µM | HT-29 > 100 µM | M14 > 100 µM | SK-MEL-28 > 100 µM | SNB-75 81.5 µM | SK-MEL-2 > 100 µM

COc1cc(C(N)=O)c(OC)c(OC)c1OC
inactive: U-251 > 100 µM | RXF 393 > 100 µM | HOP-92 > 100 µM | KM12 > 100 µM | SK-MEL-5 > 100 µM | NCI-H226 > 100 µM | HL-60 > 100 µM | SW-620 > 100 µM | A498 > 100 µM | NCI-H23 > 100 µM | OVCAR-3 > 100 µM | OVCAR-8 > 100 µM | HT-29 > 100 µM | M14 > 100 µM | SK-MEL-28 > 100 µM | SNB-75 69.8 µM | SK-MEL-2 > 100 µM

COc1ccc(CCn2c(=O)c3ccccc3n(C)c2=O)cc1
inactive: U-251 66.8 µM | KM12 8.77 µM | SK-MEL-5 31 µM | SW-620 15.9 µM | A498 62.2 µM | NCI-H23 48.6 µM | OVCAR-3 34.4 µM | OVCAR-8 58.6 µM | HT-29 23.3 µM | M14 26.1 µM | SK-MEL-28 57.5 µM | SNB-75 25.9 µM | SK-MEL-2 20.5 µM

COC(=O)C(CC(=O)Nc1ccc(C)cc1)C(=O)C(=O)Nc1c(C(C)C)cccc1C(C)C (stereo unspecified)
inactive: U-251 > 100 µM | RXF 393 > 100 µM | HOP-92 > 100 µM | NCI-H226 > 100 µM | HL-60 > 100 µM | SW-620 > 100 µM | A498 > 100 µM | NCI-H23 > 100 µM | OVCAR-8 > 100 µM | M14 > 100 µM | SK-MEL-28 > 100 µM | SNB-75 97.7 µM | SK-MEL-2 > 100 µM

Nc1c(S(=O)(=O)c2ccc(Cl)cc2)c2nc3ccccc3nc2n2ccnc12
inactive: U-251 61.8 µM | HOP-92 > 100 µM | KM12 > 100 µM | SK-MEL-5 > 100 µM | NCI-H226 18.3 µM | HL-60 30.1 µM | NCI-H23 > 100 µM | OVCAR-3 > 100 µM | OVCAR-8 48.4 µM | HT-29 > 100 µM | M14 > 100 µM | SK-MEL-28 > 100 µM | SNB-75 31.6 µM | SK-MEL-2 > 100 µM

O=C(Cc1nc2ccccc2c(=O)n1-c1ccccc1Cl)c1ccncc1
inactive: U-251 > 100 µM | RXF 393 > 100 µM | HOP-92 > 100 µM | KM12 > 100 µM | SK-MEL-5 > 100 µM | NCI-H226 > 100 µM | HL-60 37.6 µM | SW-620 > 100 µM | A498 > 100 µM | NCI-H23 > 100 µM | OVCAR-3 > 100 µM | OVCAR-8 > 100 µM | HT-29 > 100 µM | M14 > 100 µM | SK-MEL-28 > 100 µM | SNB-75 15 µM | SK-MEL-2 > 100 µM

[O-][S+]1c2ccccc2N=C(c2ccc3ccccc3c2)CC1c1ccccc1F (stereo unspecified)
inactive: U-251 > 100 µM | RXF 393 > 100 µM | KM12 > 100 µM | SK-MEL-5 > 100 µM | NCI-H226 82.2 µM | HL-60 > 100 µM | SW-620 > 100 µM | A498 22.3 µM | NCI-H23 > 100 µM | OVCAR-3 > 100 µM | OVCAR-8 > 100 µM | HT-29 > 100 µM | M14 > 100 µM | SK-MEL-28 > 100 µM | SNB-75 20.5 µM | SK-MEL-2 > 100 µM

CC(=O)OCC1OC(OC2C(CSC3OC(COC(C)=O)C(OC(C)=O)C(OC(C)=O)C3OC(C)=O)OC(OC(C)=O)C(OC(C)=O)C2OC(C)=O)C(OC(C)=O)C(OC(C)=O)C1OC(C)=O (stereo unspecified)
inactive: U-251 > 100 µM | HOP-92 > 100 µM | KM12 > 100 µM | SK-MEL-5 > 100 µM | NCI-H226 47.5 µM | SR > 100 µM | SW-620 > 100 µM | NCI-H23 > 100 µM | OVCAR-3 > 100 µM | OVCAR-8 > 100 µM | HT-29 > 100 µM | M14 > 100 µM | SK-MEL-28 > 100 µM | SNB-75 > 100 µM

COC(=O)N/N=C(\C)CC(=O)Nc1cccc([N+](=O)[O-])c1
inactive: U-251 > 100 µM | RXF 393 > 100 µM | HOP-92 > 100 µM | KM12 > 100 µM | SK-MEL-5 > 100 µM | NCI-H226 > 100 µM | HL-60 > 100 µM | SW-620 > 100 µM | NCI-H23 > 100 µM | OVCAR-3 > 100 µM | OVCAR-8 > 100 µM | HT-29 > 100 µM | M14 > 100 µM | SK-MEL-28 > 100 µM | SNB-75 > 100 µM | SK-MEL-2 > 100 µM

Cc1ccc(S(=O)(=O)C2c3nc4ccccc4cc3-c3nc4ccccc4nc32)cc1 (stereo unspecified)
inactive: U-251 > 100 µM | HOP-92 > 100 µM | KM12 > 100 µM | SK-MEL-5 51.8 µM | SR > 100 µM | HL-60 > 100 µM | SW-620 > 100 µM | A498 > 100 µM | NCI-H23 > 100 µM | OVCAR-3 > 100 µM | OVCAR-8 > 100 µM | M14 > 100 µM | SK-MEL-28 > 100 µM | SNB-75 53.8 µM | SK-MEL-2 > 100 µM

CN(C)CC1CCCC/C1=N/O (stereo unspecified)
inactive: U-251 > 100 µM | RXF 393 > 100 µM | HOP-92 > 100 µM | KM12 > 100 µM | SK-MEL-5 > 100 µM | NCI-H226 > 100 µM | HL-60 > 100 µM | SW-620 > 100 µM | A498 > 100 µM | NCI-H23 > 100 µM | OVCAR-3 > 100 µM | OVCAR-8 > 100 µM | HT-29 > 100 µM | M14 > 100 µM | SK-MEL-28 > 100 µM | SNB-75 > 100 µM | SK-MEL-2 > 100 µM

CC1OC(OC2C(OC(=O)[C@]34CCC(C)(C)CC3C3=CCC5[C@@]6(C)C[C@H](O)[C@H](OC7OC(COC8OC(CO)C(O)C(O)C8O)C(O)C(O)C7O)[C@@](C)(C(=O)O)C6CC[C@@]5(C)C3(C)CC4)OCC(O)C2O)C(O)C(O)C1OC1OCC(O)C(O)C1O (stereo partly specified)
inactive: U-251 > 100 µM | RXF 393 > 100 µM | HOP-92 > 100 µM | KM12 > 100 µM | SK-MEL-5 > 100 µM | NCI-H226 > 100 µM | HL-60 > 100 µM | SW-620 > 100 µM | A498 > 100 µM | NCI-H23 > 100 µM | OVCAR-3 > 100 µM | OVCAR-8 > 100 µM | HT-29 > 100 µM | SK-MEL-28 > 100 µM | SNB-75 > 100 µM | SK-MEL-2 > 100 µM
